Results as given in PubChem BioAssay (NCI).
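A five-concentration, 48-hour dose response in 96-well plates underlies each endpoint, interpolated linearly between surrounding concentrations. TGI denotes the concentration required for complete inhibition of growth.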

Experiments:
Assay in all cases: inhibition of tumour cell growth, NCI panel, 48 h
[1] = tested on: SN12C renal
[2] = tested on: DU-145 prostate
[3] = tested on: COLO 205 colon
[4] = tested on: KM12 colon
[5] = tested on: OVCAR-5 ovarian
[6] = tested on: OVCAR-3 ovarian
[7] = tested on: HL-60(TB) leukemia
[8] = tested on: SK-MEL-2 melanoma
[9] = tested on: RXF 393 renal
[10] = tested on: SK-OV-3 ovarian
[11] = tested on: HCT-15 colon
[12] = tested on: A498 renal
[13] = tested on: CCRF-CEM leukemia
[14] = tested on: IGROV1 ovarian
[15] = tested on: HOP-62 NSCLC
[16] = tested on: CAKI-1 renal
[17] = tested on: M14 melanoma
[18] = tested on: 786-0 renal
[19] = tested on: K-562 leukemia
[20] = tested on: SNB-19 CNS
[21] = tested on: HCT-116 colon
[22] = tested on: UACC-62 melanoma
[23] = tested on: EKVX NSCLC
[24] = tested on: NCI-H226 lung
[25] = tested on: A549 NSCLC
[26] = tested on: UO-31 renal
[27] = tested on: MCF7 breast
[28] = tested on: SR leukemia
[29] = tested on: MALME-3M melanoma
[30] = tested on: SNB-75 CNS
[31] = tested on: NCI/ADR-RES ovarian
[32] = tested on: OVCAR-4 ovarian
[33] = tested on: SK-MEL-28 melanoma
[34] = tested on: LOX IMVI melanoma
[35] = tested on: MDA-MB-435
[36] = tested on: HS 578T breast
[37] = tested on: NCI-H522 lung
[38] = tested on: SK-MEL-5 melanoma
[39] = tested on: T-47D breast
[40] = tested on: SF-295 CNS
[41] = tested on: OVCAR-8 ovarian
[42] = tested on: MDA-MB-231 breast
[43] = tested on: PC-3 prostate
[44] = tested on: SW-620 colon
[45] = tested on: SF-539 CNS
[46] = tested on: SF-268 CNS
[47] = tested on: BT-549 breast
[48] = tested on: RPMI-8226 leukemia
[49] = tested on: U251 CNS
[50] = tested on: HCC-2998 colon
[51] = tested on: MDA-N
[52] = tested on: NCI-H23 lung
[53] = tested on: HOP-92 NSCLC
[54] = tested on: HT29 colon
[55] = tested on: TK-10 renal
[56] = tested on: NCI-H460 lung
[57] = tested on: MOLT-4 leukemia
[58] = tested on: ACHN renal
[59] = tested on: UACC-257 melanoma

CO/C(N)=C(\C#N)N=Cc1ccccc1
TGI [1]: > 100 µM
TGI [2]: > 100 µM
TGI [3]: > 100 µM
TGI [4]: > 100 µM
TGI [5]: > 100 µM
TGI [6]: > 100 µM
TGI [7]: > 100 µM
TGI [8]: > 100 µM
TGI [9]: > 100 µM
TGI [10]: > 100 µM
TGI [11]: > 100 µM
TGI [12]: > 100 µM
TGI [13]: > 100 µM
TGI [14]: > 100 µM
TGI [15]: > 100 µM
TGI [16]: > 100 µM
TGI [17]: > 100 µM
TGI [18]: > 100 µM
TGI [19]: > 100 µM
TGI [20]: > 100 µM
TGI [21]: > 100 µM
TGI [22]: > 100 µM
TGI [23]: > 100 µM
TGI [24]: > 100 µM
TGI [25]: > 100 µM
TGI [26]: > 100 µM
TGI [27]: > 100 µM
TGI [28]: > 100 µM
TGI [29]: > 100 µM
TGI [30]: > 100 µM
TGI [31]: > 100 µM
TGI [32]: > 100 µM
TGI [33]: > 100 µM
TGI [34]: > 100 µM
TGI [35]: > 100 µM
TGI [36]: > 100 µM
TGI [37]: > 100 µM
TGI [38]: > 100 µM
TGI [39]: > 100 µM
TGI [40]: > 100 µM
TGI [41]: > 100 µM
TGI [42]: > 100 µM
TGI [43]: > 100 µM
TGI [44]: > 100 µM
TGI [45]: > 100 µM
TGI [46]: > 100 µM
TGI [47]: > 100 µM
TGI [48]: > 100 µM
TGI [49]: > 100 µM
TGI [50]: > 100 µM
TGI [51]: > 100 µM
TGI [52]: > 100 µM
TGI [53]: > 100 µM
TGI [54]: > 100 µM
TGI [55]: > 100 µM
TGI [56]: > 100 µM
TGI [57]: > 100 µM
TGI [58]: > 100 µM
TGI [59]: > 100 µM

C=C(C)C(=O)OC1C[C@H](COC(C)=O)C2CC=C(C)C2C2OC(=O)C(=C)[C@H]12 (stereo partly drawn)
TGI [1]: 13.1 µM
TGI [2]: 16.5 µM
TGI [3]: 6.17 µM
TGI [4]: 24.2 µM
TGI [5]: 25.5 µM
TGI [6]: 5.3 µM
TGI [7]: 2.83 µM
TGI [8]: 15.9 µM
TGI [9]: 14.1 µM
TGI [10]: 31 µM
TGI [11]: 5.17 µM
TGI [12]: 27.8 µM
TGI [13]: 5.03 µM
TGI [14]: 25.5 µM
TGI [15]: 27.7 µM
TGI [16]: 7 µM
TGI [17]: 4.23 µM
TGI [18]: 7.26 µM
TGI [19]: 5.56 µM
TGI [20]: 31.8 µM
TGI [21]: 3.3 µM
TGI [22]: 16.7 µM
TGI [23]: 23.4 µM
TGI [24]: 31.8 µM
TGI [25]: 34.2 µM
TGI [26]: 4.91 µM
TGI [27]: 14.7 µM
TGI [28]: 5.07 µM
TGI [29]: 2.55 µM
TGI [30]: 24.2 µM
TGI [31]: 6.23 µM
TGI [32]: 5.57 µM
TGI [33]: 7.08 µM
TGI [34]: 4.86 µM
TGI [35]: 10.9 µM
TGI [36]: 14 µM
TGI [37]: 3.06 µM
TGI [38]: 20.3 µM
TGI [39]: 20.8 µM
TGI [40]: 33.8 µM
TGI [41]: 13.3 µM
TGI [42]: 13.5 µM
TGI [43]: 15.1 µM
TGI [44]: 6.53 µM
TGI [45]: 10.1 µM
TGI [46]: 7.21 µM
TGI [47]: 14.4 µM
TGI [48]: 2.61 µM
TGI [49]: 22.1 µM
TGI [50]: 29.2 µM
TGI [51]: 10.3 µM
TGI [52]: 14.2 µM
TGI [53]: 5.9 µM
TGI [54]: 18 µM
TGI [55]: 18.1 µM
TGI [56]: 34.4 µM
TGI [57]: 5.24 µM
TGI [58]: 11.8 µM
TGI [59]: 13.2 µM
